{"source": "paper PMC3528340", "about": "(Journal of the American Chemical Society, 2012)", "key": {"[1]": {"biological_target": "T1, EcLTA (E. coli L-Thr aldolase, EC 4.1.24) (Escherichia coli, UniProt P75823)", "T1 sequence (P75823 1-333)": "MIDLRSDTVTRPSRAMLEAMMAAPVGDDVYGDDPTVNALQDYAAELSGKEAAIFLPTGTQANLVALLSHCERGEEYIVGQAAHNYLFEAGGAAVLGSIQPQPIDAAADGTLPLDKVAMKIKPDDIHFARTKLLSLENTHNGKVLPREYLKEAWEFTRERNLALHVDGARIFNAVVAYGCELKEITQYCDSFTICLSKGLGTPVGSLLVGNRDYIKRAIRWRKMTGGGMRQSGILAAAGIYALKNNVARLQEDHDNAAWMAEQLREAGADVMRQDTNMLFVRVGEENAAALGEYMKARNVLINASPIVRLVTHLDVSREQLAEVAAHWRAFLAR", "experiment": "aldehyde dehydrogenase-coupled retro-aldol assay, A340", "format": "biochemical", "conditions": "L-Thr only, no aldehyde acceptor"}, "EcGlyA (E. coli SHMT)": {"biological_target": "T2, EcGlyA (E. coli SHMT) (Escherichia coli, UniProt P0A825)", "T2 sequence (P0A825 1-417)": "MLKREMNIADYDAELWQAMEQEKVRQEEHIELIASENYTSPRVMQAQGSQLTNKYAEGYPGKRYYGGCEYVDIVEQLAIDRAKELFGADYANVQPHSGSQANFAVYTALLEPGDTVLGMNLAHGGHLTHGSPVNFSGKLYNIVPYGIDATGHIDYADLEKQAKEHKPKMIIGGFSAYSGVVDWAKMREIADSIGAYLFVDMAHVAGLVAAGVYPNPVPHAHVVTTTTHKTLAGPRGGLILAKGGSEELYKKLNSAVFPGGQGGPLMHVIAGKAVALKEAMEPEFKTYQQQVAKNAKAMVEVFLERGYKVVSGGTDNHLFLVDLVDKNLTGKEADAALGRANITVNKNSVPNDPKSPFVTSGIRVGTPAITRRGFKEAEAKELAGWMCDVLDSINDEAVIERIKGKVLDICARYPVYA", "experiment": "aldehyde dehydrogenase-coupled retro-aldol assay, A340", "format": "biochemical", "conditions": "L-Thr only, no aldehyde acceptor"}}, "data": [{"smiles": "C[C@@H](O)[C@H](N)C(=O)O", "note": "[L-Thr]", "values": [{"measurement": "specific activity", "setting": "[1]", "value": "EcLTA, and EcGlyA were shown to catalyze a retro-aldol-type reaction in the presence of only L-Thr"}, {"measurement": "specific activity", "setting": "EcGlyA (E. coli SHMT)", "value": "EcLTA, and EcGlyA were shown to catalyze a retro-aldol-type reaction in the presence of only L-Thr"}]}]}
